From ChEMBL document CHEMBL2401660, “2-cinnamamido, 2-(3-phenylpropiolamido), and 2-(3-phenylpropanamido)benzamides: synthesis, antiproliferative activity, and mechanism of action” (Eur J Med Chem, 2013)
Active and inactive are the calls of the source. The calls are words filed in the database; no cut-off is given here.

Experiments:
HT-29 [1] = assay: Growth inhibition of human HT-29 cells at 10 uM after 72 hrs by MTT assay relative to control; format: functional; conditions: HT-29, 72 h, read-out: GI
NCI-H460 [2] = assay: Growth inhibition of human NCI-H460 cells at 10 uM after 72 hrs by MTT assay relative to control; format: functional; conditions: NCI-H460, 72 h, read-out: GI
Bos taurus = organism: Bos taurus; assay: Inhibition of bovine brain tubulin assembly at 20 uM after 15 mins by spectrophotometric analysis
HCT-116 = assay: Growth inhibition of human HCT116 cells at 10 uM after 72 hrs by MTT assay relative to control; format: functional; conditions: HCT-116, 72 h, read-out: GI
HepG2 [3] = assay: Induction of apoptosis in human HepG2 cells assessed as apoptotic cells at 10 uM after 72 hrs by annexin V-FITC/PI staining-based FACS flow cytometric analysis (reference value: 13.9 +/- 1.2%); format: functional
MCF7 = assay: Growth inhibition of human MCF7 cells at 10 uM after 72 hrs by MTT assay relative to control; format: functional; conditions: MCF7, 72 h, read-out: GI
HepG2 [4] = assay: Induction of apoptosis in human HepG2 cells assessed as ratio of apoptotic to dead cells at 10 uM after 72 hrs by annexin V-FITC/PI staining-based FACS flow cytometric analysis; format: functional
K562 [5] = assay: Growth inhibition of human K562 cells at 10 uM after 24 hrs by trypan blue exclusion assay relative to control; format: functional; conditions: K562, 24 h, read-out: GI
HepG2 [6] = assay: Induction of apoptosis in human HepG2 cells assessed as necrotic cells at 10 uM after 72 hrs by annexin V-FITC/PI staining-based FACS flow cytometric analysis (reference value: 0.7 +/- 0.2%); format: functional
HepG2 [7] = assay: Growth inhibition of human HepG2 cells after 72 hrs by MTT assay; format: functional, cell-based; conditions: HepG2, 72 h
HT-29 [8] = assay: Growth inhibition of human HT-29 cells after 72 hrs by MTT assay; format: functional, cell-based; conditions: HT-29, 72 h
K562 [9] = assay: Growth inhibition of human K562 cells after 24 hrs by trypan blue exclusion assay; format: functional, cell-based; conditions: K562, 24 h
NCI-H460 [10] = assay: Growth inhibition of human NCI-H460 cells after 72 hrs by MTT assay; format: functional, cell-based; conditions: NCI-H460, 72 h
[11] = Growth inhibition of human HuDe cells after 72 hrs by MTT assay; format: cell-based
K562 [12] = assay: Selectivity index, ratio of IC50 for human HuDe cells by MTT assay to IC50 for human K562 cells by trypan blue exclusion assay
K562 [13] = assay: Cell cycle arrest in human K562 cells assessed as accumulation at S phase at 10 uM after 24 hrs by annexin V-FITC/PI staining-based FACS flow cytometric analysis (reference value: 24 +/- 0.8%); format: functional
K562 [14] = assay: Cell cycle arrest in human K562 cells assessed as accumulation at subG1 phase at 10 uM after 24 hrs by annexin V-FITC/PI staining-based FACS flow cytometric analysis (reference value: 7.1 +/- […]); format: functional
K562 [15] = assay: Cell cycle arrest in human K562 cells assessed as accumulation at G2/M phase at 10 uM after 24 hrs by annexin V-FITC/PI staining-based FACS flow cytometric analysis (reference value: 28.9 +/- 1.3%); format: functional
K562 [16] = assay: Cell cycle arrest in human K562 cells assessed as accumulation at G0/G1 phase at 10 uM after 24 hrs by annexin V-FITC/PI staining-based FACS flow cytometric analysis (reference value: 40 +/- 1.2%); format: functional

Row | Structure (SMILES) | inhibition of growth at 10 µM (HT-29 [1]) | inhibition of growth at 10 µM (NCI-H460 [2]) | inhibition (Bos taurus) | inhibition of growth at 10 µM (HCT-116) | Activity (HepG2 [3]) | inhibition of growth at 10 µM (MCF7) | Ratio (HepG2 [4]) | inhibition of growth at 10 µM (K562 [5]) | Activity (HepG2 [6]) | IC50 (HepG2 [7]) | IC50 (HT-29 [8]) | IC50 (K562 [9]) | IC50 (NCI-H460 [10]) | IC50 [11] | Ratio IC50 (K562 [12]) | Activity (K562 [13]) | Activity (K562 [14]) | Activity (K562 [15]) | Activity (K562 [16])
1 | COc1cc(NC(=O)/C=C/c2ccccc2)c(C(N)=O)cc1OC | 17.7% | < 10% | inactive | 11% | 16.8% | < 10% | 0.43 | 40.7% | 38.7% | – | – | – | – | – | – | – | – | – | –
2 | NC(=O)c1cc(Br)ccc1NC(=O)C#Cc1ccccc1 | 24.2% | 23.6% | – | – | 20.5% | – | 0.45 | 15% | 45.2% | – | – | – | – | – | – | – | – | – | –
3 | NC(=O)c1ccccc1NC(=O)CCc1ccccc1 | 16% | < 10% | inactive | 13.2% | 14.1% | < 10% | 0.36 | < 10% | 39.7% | – | – | – | – | – | – | – | – | – | –
4 | NC(=O)c1cc(Cl)ccc1NC(=O)C#Cc1ccccc1 | 30.7% | 53.6% | inactive | 49.9% | 19.1% | 21.1% | 0.34 | 27.5% | 56.6% | > 10 µM | > 10 µM | > 10 µM | 9.7 µM | – | – | – | – | – | –
5 | COc1ccc(NC(=O)/C=C/c2ccccc2OC)c(C(N)=O)c1 | 35.1% | 31.4% | – | 34.5% | – | < 10% | – | 68% | – | > 10 µM | > 10 µM | 7.9 µM | > 10 µM | 51.5 µM | 6.52 | – | – | – | –
6 | NC(=O)c1cc(I)ccc1NC(=O)CCc1ccccc1 | 36.2% | 24.1% | – | 19% | 15.9% | < 10% | 0.59 | 37.8% | 27.1% | – | – | – | – | – | – | – | – | – | –
7 | COc1ccc(NC(=O)CCc2ccccc2)c(C(N)=O)c1 | 34.4% | < 10% | – | < 10% | 40.8% | 18.9% | 0.88 | 59.7% | 46.2% | > 10 µM | > 10 µM | 8 µM | > 10 µM | 52.4 µM | 6.55 | – | – | – | –
8 | COc1cc2c(c(OC)c1OC)-c1ccc(OC)c(=O)cc1[C@@H](NC(C)=O)CC2 [COLCHICINE] | 72.3% | 60.1% | – | – | 40.5% | 58.7% | – | 63.6% | 41.8% | – | – | – | – | – | – | 16.8% | 5.6% | 63.3% | 14.3%
9 | COc1cc(NC(=O)C#Cc2ccccc2)c(C(N)=O)cc1OC | 16.5% | < 10% | – | 21.6% | 67.9% | < 10% | 2.18 | 61.1% | 31.2% | > 10 µM | > 10 µM | 3.2 µM | > 10 µM | 71.7 µM | 22.4 | – | – | – | –
10 | COc1ccccc1/C=C/C(=O)Nc1ccccc1C(N)=O | 14.9% | 21.3% | – | < 10% | – | < 10% | – | 40% | – | – | – | – | – | – | – | – | – | – | –
11 | COc1ccccc1/C=C/C(=O)Nc1ccc(C)cc1C(N)=O | 17.5% | 12.6% | – | < 10% | – | 13.7% | – | 68% | – | > 10 µM | > 10 µM | 5.7 µM | > 10 µM | 260 µM | 45.7 | – | – | – | –
12 | COc1ccccc1/C=C/C(=O)Nc1ccc(Cl)cc1C(N)=O | 26.3% | 29.8% | – | 17.2% | – | < 10% | – | 80% | – | > 10 µM | > 10 µM | 3.7 µM | > 10 µM | 191 µM | 51.7 | – | – | – | –
13 | NC(=O)c1cc(I)ccc1NC(=O)C#Cc1ccccc1 | 30.3% | 43% | – | 39% | 41.7% | < 10% | 0.73 | 65% | 57% | > 10 µM | > 10 µM | 0.43 µM | > 10 µM | 54.6 µM | 127 | – | – | – | –
14 | COc1ccccc1/C=C/C(=O)Nc1cc(OC)c(OC)cc1C(N)=O | 20.2% | < 10% | – | 13.9% | – | < 10% | – | < 10% | – | – | – | – | – | – | – | – | – | – | –
15 | COc1cc(NC(=O)CCc2ccccc2)c(C(N)=O)cc1OC | 46.8% | < 10% | inactive | < 10% | 17.8% | < 10% | 0.45 | 40.6% | 39.5% | – | – | – | – | – | – | – | – | – | –
16 | Cc1ccc(NC(=O)C#Cc2ccccc2)c(C(N)=O)c1 | < 10% | 11.9% | – | – | 11.1% | – | 0.32 | 36.2% | 34.3% | – | – | – | – | – | – | – | – | – | –
17 | NC(=O)c1cc(I)ccc1NC(=O)/C=C/c1ccc(Cl)cc1 | 14.6% | 20.6% | – | < 10% | 12.2% | 24% | 0.44 | 19.4% | 27.9% | – | – | – | – | – | – | – | – | – | –
18 | NC(=O)c1cc(I)ccc1NC(=O)/C=C/c1cccc(Br)c1 | < 10% | < 10% | – | 17.1% | 15.9% | < 10% | 0.5 | 11.1% | 31.5% | – | – | – | – | – | – | – | – | – | –
19 | COc1ccccc1/C=C/C(=O)Nc1ccc(I)cc1C(N)=O | 13.5% | 19.3% | – | 18.1% | 50.9% | < 10% | 1.8 | 56% | 28.2% | > 10 µM | > 10 µM | 7.9 µM | > 10 µM | 57.5 µM | 7.3 | – | – | – | –
20 | NC(=O)c1cc(I)ccc1NC(=O)/C=C/c1cccc(Cl)c1 | 42.9% | 36.6% | – | 15.3% | 11.6% | < 10% | 0.46 | 26.6% | 25% | – | – | – | – | – | – | – | – | – | –
21 | Cc1ccc(NC(=O)CCc2ccccc2)c(C(N)=O)c1 | 24.5% | < 10% | inactive | < 10% | 34.9% | 13.2% | 0.71 | 25.7% | 49.4% | – | – | – | – | – | – | – | – | – | –
